Experimental data from publication PMC7284870, “Antimicrobial Peptides from Rat-Tailed Maggots of the Drone Fly Eristalis tenax Show Potent Activity against Multidrug-Resistant Gram-Negative Bacteria” (Microorganisms, 2020).
≈ marks a conversion by molar mass, not a printed value. Where two headings read alike, the source gives them in different places. Residues, ends and D or L forms follow the SMILES beside them.

Tests used:
S. aureus ATCC 33592 = type: cell-based, Staphylococcus aureus; settings: CAMB, 18 h, 37 °C, n = 4
Method: (§1) The strains that were used in this study (Table 2 and Table S1) were cultivated at 37 °C in cation-adjusted Mueller–Hinton broth (CAMB) in Erlenmeyer flasks, or on the same medium with agar in Petri dishes. Exceptionally, Mycobacterium smegmatis was cultivated at 37 °C in brain heart infusion (BHI) medium that was supplemented with 1% Tween-80 in Erlenmeyer flasks, or on the same medium lacking detergent but with agar in Petri dishes. Strains listed with Robert Koch Institute (RKI) strain numbers are clinical isolates from the RKI strain collection originating from hospitalized patients in Germany. The remaining strains originated from the Sanofi strain collection and they were originally purchased from the American Type Culture Collection or the German Collection of Microorganisms and Cell Cultures. Meropenem/colistin-resistant strains were maintained, as described above, with the appropriate antibiotic added at levels below the minimal inhibitory concentration (MIC).
(§2) The MIC values were determined in 384-well microtiter plates with an assay volume of 20 µL. Immediately before each assay, the cultures of test organisms (bacteria grown for 18 h, Candida albicans and M. smegmatis grown for 48 h) were diluted with the appropriate medium to a density of 1 × 10^6 cells/mL (C. albicans), 1 × 10^5 cells/mL (M. smegmatis) or 5 × 10^5 cells per mL (other species). […] We transferred 2-µL aliquots from this dilution series to new 384-well microtiter plates while using a CyBio-Well 384-channel automated pipettor (Analytic Jena, Jena, Germany) and added 18 µL of the diluted suspension of each test species using a Viafill reagent dispenser (Integra), thus reducing the final peptide concentration 10-fold to the range 1024–0.03125 µg/mL. […] The growth of M. smegmatis was measured using the BacTiter-Glo luminescence test system (Promega, Madison, WI, USA). The growth of the other species was determined by visual inspection of the microtiter plate and turbidimetry based on the optical density at 600 nm (OD600). The MIC was defined as the peptide concentration at which no bacterial growth was observed. We supplemented the test medium with either 150 mM NaCl or 1.25 mM CaCl2 to represent monovalent and divalent cations to simulate physiological conditions.

[1] = test system: Micrococus luteus DSM 20030; type: cell-based, Micrococcus luteus; settings: CAMB, 18 h, 37 °C, n = 4
Method: as §1
The MIC values were determined in 384-well microtiter plates with an assay volume of 20 µL. […] The growth of M. smegmatis was measured using the BacTiter-Glo luminescence test system (Promega, Madison, WI, USA). The growth of the other species was determined by visual inspection of the microtiter plate and turbidimetry based on the optical density at 600 nm (OD600). […]

E. coli ATCC 25922 = test system: E. coli ATCC 25922
Method: as §1
The MIC values were determined in 384-well microtiter plates with an assay volume of 20 µL. Immediately before each assay, the cultures of test organisms (bacteria grown for 18 h, Candida albicans and M. smegmatis grown for 48 h) were diluted with the appropriate medium to a density of 1 × 10^6 cells/mL (C. albicans), 1 × 10^5 cells/mL (M. smegmatis) or 5 × 10^5 cells per mL (other species). The peptides were dissolved in sterile water at a concentration of 10.24 mg/mL and a 1:2 dilution series was prepared in a 384-well microtiter plate to achieve the concentration range 10,240–0.3125 µg/mL in a volume of 50 µL. We transferred 2-µL aliquots from this dilution series to new 384-well microtiter plates while using a CyBio-Well 384-channel automated pipettor (Analytic Jena, Jena, Germany) and added 18 µL of the diluted suspension of each test species using a Viafill reagent dispenser (Integra), thus reducing the final peptide concentration 10-fold to the range 1024–0.03125 µg/mL. The cells were incubated at 37 °C and 85% relative humidity, shaking at 180 rpm for 48 h (M. smegmatis), 24 h (C. albicans) or 18 h (other species). The growth of M. smegmatis was measured using the BacTiter-Glo luminescence test system (Promega, Madison, WI, USA). The growth of the other species was determined by visual inspection of the microtiter plate and turbidimetry based on the optical density at 600 nm (OD600). […] We supplemented the test medium with either 150 mM NaCl or 1.25 mM CaCl2 to represent monovalent and divalent cations to simulate physiological conditions.

Canida albicans FH2173 = type: cell-based, Candida albicans; settings: CAMB, 24 h, 37 °C, n = 4
Method: as §1, §2

[2] = test system: Acinetobacter baumannii ATCC 19606; type: cell-based; settings: CAMB, 18 h, 37 °C, n = 4
Method: as §1, §2

[3] = test system: Enterococcus faecium DSM 17050; type: cell-based; settings: CAMB, 18 h, 37 °C, n = 4
Method: as §1, §2

[4] = test system: Klebsiella pneumoniae DSM 30104; type: cell-based; settings: CAMB, 18 h, 37 °C, n = 4
Method: as §1, §2

[5] = test system: Listeria monocytogenes DSM 20600; type: cell-based; settings: CAMB, 18 h, 37 °C, n = 4
Method: as §1, §2

[6] = test system: Mycobacterium smegmatis ATCC 607; type: cell-based; settings: BHI, 48 h, 37 °C, BacTiter-Glo, n = 4
Method: as §1, §2

[7] = test system: Proteus mirabilis DSM 4479; type: cell-based; settings: CAMB, 18 h, 37 °C, n = 4
Method: as §1, §2

[8] = test system: Pseudomonas aeruginosa ATCC 27853; type: cell-based; settings: CAMB, 18 h, 37 °C, n = 4
Method: as §1, §2

[9] = test system: Staphylococcus aureus ATCC 25923; type: cell-based; settings: CAMB, 18 h, 37 °C, n = 4
Method: as §1, §2

[10] = test system: Staphylococcus epidermidis ATCC 35984; type: cell-based; settings: CAMB, 18 h, 37 °C, n = 4
Method: as §1, §2

Structure (SMILES): CC(C)C[C@@H]1NC(=O)[C@@H]2CSSC[C@@H](C(=O)N[C@@H](CCCNC(=N)N)C(=O)N[C@@H](CCCCN)C(=O)O)NC(=O)[C@H](CC(N)=O)NC(=O)[C@@H]3CSSC[C@H](NC(=O)[C@H](C)NC(=O)[C@H](C)NC(=O)[C@H](CC(=O)O)NC(=O)[C@H](CCCCN)NC(=O)[C@H](C(C)C)NC(=O)[C@H](CC(N)=O)NC(=O)[C@H](CC(C)C)NC(=O)[C@H](Cc4ccccc4)NC(=O)[C@H](CO)NC(=O)[C@H](CC(C)C)NC(=O)[C@H](CC(C)C)NC(=O)[C@H](CC(=O)O)NC(=O)[C@@H](NC(=O)[C@@H](NC(=O)[C@H](C)N)[C@@H](C)O)CSSC[C@H](NC(=O)[C@H](Cc4ccc(O)cc4)NC(=O)CNC(=O)CNC(=O)[C@H](CCCNC(=N)N)NC(=O)[C@H](Cc4ccc(O)cc4)NC(=O)CNC(=O)[C@H](CCCCN)NC(=O)[C@H](C)NC1=O)C(=O)N[C@@H](CC(=O)O)C(=O)NCC(=O)N[C@@H](CCCNC(=N)N)C(=O)N[C@@H](CCCCN)C(=O)N[C@@H](C(C)C)C(=O)N3)C(=O)N[C@@H](C)C(=O)N[C@@H](C)C(=O)N[C@@H](Cc1c[nH]cn1)C(=O)N2 [EtDef4] (HELM PEPTIDE1{A.T.C.D.L.L.S.F.L.N.V.K.D.A.A.C.A.A.H.C.L.A.K.G.Y.R.G.G.Y.C.D.G.R.K.V.C.N.C.R.K}$PEPTIDE1,PEPTIDE1,3:R3-30:R3|PEPTIDE1,PEPTIDE1,16:R3-36:R3|PEPTIDE1,PEPTIDE1,20:R3-38:R3$$$V2.0)
- MIC (S. aureus ATCC 33592): 16 mg/L (≈ 3.73 µM)
- MIC [1]: 16 mg/L (≈ 3.73 µM)
- MIC (E. coli ATCC 25922; CAMB + A000160918 [4 µg/mL]): 32 mg/L
- MIC (E. coli ATCC 25922; CAMB + A000161246 [4 µg/mL]): 128 mg/L
- MIC (E. coli ATCC 25922; CAMB + A000173031A [4 µg/mL]): 16 mg/L
- MIC (E. coli ATCC 25922; CAMB + A000173033A [4 µg/mL]): 256 mg/L
- MIC (E. coli ATCC 25922; CAMB + A000173039A [0.25 µg/mL]): 64 mg/L
- MIC (E. coli ATCC 25922; CAMB + A000173380A [4 µg/mL]): 256 mg/L
- MIC (E. coli ATCC 25922; CAMB + A000498432A [4 µg/mL]): >256 mg/L
- MIC (E. coli ATCC 25922; CAMB + A000499933A [0.0625 µg/mL]): >256 mg/L
- MIC (E. coli ATCC 25922; CAMB + A000500059A [0.0625 µg/mL]): >256 mg/L
- MIC (E. coli ATCC 25922; CAMB + A000500146A [0.0625 µg/mL]): 4 mg/L
- MIC (E. coli ATCC 25922; CAMB + A000501181A [4 µg/mL]): >256 mg/L
- MIC (E. coli ATCC 25922; CAMB + Colistin E1 [0.016 µg/mL]): 8 mg/L
- MIC (E. coli ATCC 25922; CAMB + Colistin E2 [0.016 µg/mL]): 2 mg/L
- MIC (E. coli ATCC 25922; CAMB + PMB [0.016 µg/mL]): 2 mg/L
- MIC (E. coli ATCC 25922; CAMB + PMBN [4 µg/mL]): >256 mg/L
- MIC (E. coli ATCC 25922; CAMB, 18 h, 37 °C, n = 4): >128 mg/L
- MIC (E. coli ATCC 25922; Table 6, CAMB): >256 mg/L
- MIC (Canida albicans FH2173): >128 mg/L
- MIC [2]: >128 mg/L
- MIC [3]: >128 mg/L
- MIC [4]: >128 mg/L
- MIC [5]: 16 mg/L (≈ 3.73 µM)
- MIC [6]: 32 mg/L (≈ 7.46 µM)
- MIC [7]: >128 mg/L
- MIC [8]: >128 mg/L
- MIC [9]: 16 mg/L (≈ 3.73 µM)
- MIC [10]: >128 mg/L
